Reference: PubChem BioAssay (NCI)
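Step 1: Grow cells in 96-well plates. Step 2: Expose to compound for 48 hours at 5 concentrations. Step 3: Interpolate endpoints linearly; if unreached, use highest concentration. TGI is the concentration that stops growth completely.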

Key:
Assay in all cases: growth of human tumour cells (NCI), 48 h
786-0 renal = test system: 786-0 renal
A549 NSCLC = test system: A549 NSCLC
ACHN renal = test system: ACHN renal
BT-549 breast = test system: BT-549 breast
CCRF-CEM leukemia = test system: CCRF-CEM leukemia
COLO 205 colon = test system: COLO 205 colon
DU-145 prostate = test system: DU-145 prostate
EKVX NSCLC = test system: EKVX NSCLC
HCC-2998 colon = test system: HCC-2998 colon
HCT-116 colon = test system: HCT-116 colon
HCT-15 colon = test system: HCT-15 colon
HL-60(TB) leukemia = test system: HL-60(TB) leukemia
HOP-62 NSCLC = test system: HOP-62 NSCLC
HOP-92 NSCLC = test system: HOP-92 NSCLC
HS 578T breast = test system: HS 578T breast
HT29 colon = test system: HT29 colon
IGROV1 ovarian = test system: IGROV1 ovarian
KM12 colon = test system: KM12 colon
M14 melanoma = test system: M14 melanoma
MALME-3M melanoma = test system: MALME-3M melanoma
MCF7 breast = test system: MCF7 breast
MDA-MB-231 breast = test system: MDA-MB-231 breast
MDA-MB-435 = test system: MDA-MB-435
MDA-N = test system: MDA-N
MOLT-4 leukemia = test system: MOLT-4 leukemia
NCI-H226 lung = test system: NCI-H226 lung
NCI-H23 lung = test system: NCI-H23 lung
NCI-H460 lung = test system: NCI-H460 lung
NCI-H522 lung = test system: NCI-H522 lung
NCI/ADR-RES ovarian = test system: NCI/ADR-RES ovarian
OVCAR-3 ovarian = test system: OVCAR-3 ovarian
OVCAR-4 ovarian = test system: OVCAR-4 ovarian
OVCAR-5 ovarian = test system: OVCAR-5 ovarian
OVCAR-8 ovarian = test system: OVCAR-8 ovarian
PC-3 prostate = test system: PC-3 prostate
RPMI-8226 leukemia = test system: RPMI-8226 leukemia
RXF 393 renal = test system: RXF 393 renal
SF-268 CNS = test system: SF-268 CNS
SF-295 CNS = test system: SF-295 CNS
SF-539 CNS = test system: SF-539 CNS
SK-MEL-28 melanoma = test system: SK-MEL-28 melanoma
SK-MEL-5 melanoma = test system: SK-MEL-5 melanoma
SK-OV-3 ovarian = test system: SK-OV-3 ovarian
SN12C renal = test system: SN12C renal
SNB-19 CNS = test system: SNB-19 CNS
SNB-75 CNS = test system: SNB-75 CNS
SR leukemia = test system: SR leukemia
SW-620 colon = test system: SW-620 colon
T-47D breast = test system: T-47D breast
TK-10 renal = test system: TK-10 renal
U251 CNS = test system: U251 CNS
UACC-257 melanoma = test system: UACC-257 melanoma
UACC-62 melanoma = test system: UACC-62 melanoma
CAKI-1 renal = test system: CAKI-1 renal
K-562 leukemia = test system: K-562 leukemia
LOX IMVI melanoma = test system: LOX IMVI melanoma
SK-MEL-2 melanoma = test system: SK-MEL-2 melanoma
UO-31 renal = test system: UO-31 renal

Measured: TGI

O=C(CN=C(CN(c1ccccc1)c1ccccc1)Oc1c(Cl)cc(Cl)cc1Cl)N1c2ccccc2Sc2ccccc21
27.4 µM: RXF 393 renal
57.2 µM: HOP-92 NSCLC
not listed: CAKI-1 renal | K-562 leukemia | LOX IMVI melanoma | SK-MEL-2 melanoma | UO-31 renal
> 100 µM: all other assays above

COc1ccc(Nc2nn3c(=O)c4c(C)c(C)sc4nc3s2)cc1
76.8 µM: HOP-62 NSCLC
78.8 µM: OVCAR-3 ovarian | TK-10 renal
46.9 µM: NCI-H23 lung
67.1 µM: NCI-H522 lung
36.7 µM: RXF 393 renal
35.3 µM: UO-31 renal
60.5 µM: HCT-116 colon
51 µM: 786-0 renal
89 µM: MALME-3M melanoma
63.5 µM: T-47D breast
69.2 µM: HOP-92 NSCLC
34.5 µM: DU-145 prostate
49.8 µM: SNB-75 CNS
38.5 µM: A549 NSCLC
48.3 µM: OVCAR-4 ovarian
not listed: EKVX NSCLC | HCC-2998 colon | RPMI-8226 leukemia
> 100 µM: all other assays above
